The nature of data set [1]: Analysis of luciferase siRNA-encapsulated lipid nanoparticle (Production Example 1). In kind it is physicochemical. Particulars: for Rate of encapsulation / Average particle size: luc siRNA lipid nanoparticle; for siRNA concentration: luc siRNA lipid nanoparticle dispersion after dialysis and filtration; for Average particle size: cationic lipid:DPPC:cholesterol:GS-020=60:10.6:28:1.4, Z-average, dynamic light scattering. The text has this: The particle size of the lipid particle (in the composition) can be measured by a known approach. For example, the particle size can be calculated as a Z-average particle size by the cumulant analysis of an autocorrelation function using a particle size measurement apparatus Zetasizer Nano ZS (Malvern Instruments) based on a dynamic light scattering measurement technique. The particle size (average particle size) of the lipid particle (in the composition) is, for example, 10 to 200 nm, preferably 60 to 170 nm.
The concentration and rate of encapsulation of the nucleic acid (e.g., siRNA or mRNA) in the composition of the present invention can be measured by a known approach. For example, the nucleic acid is fluorescently labeled using Quant-iT™ RiboGreen® (Invitrogen Corp.), and the fluorescence intensity can be measured to determine the concentration and the rate of encapsulation. The concentration of the nucleic acid in the composition can be calculated using a calibration curve prepared from aqueous nucleic acid solutions having known concentrations. The rate of encapsulation can be calculated on the basis of the difference in fluorescence intensity between the presence and absence of addition of Triton-X 100 (surfactant for disrupting the lipid particle). The concentration of the nucleic acid in the composition refers to the total concentration of a nucleic acid encapsulated in the lipid particle and an unencapsulated nucleic acid. The rate of encapsulation refers to the ratio of the nucleic acid encapsulated in the lipid particle to all nucleic acids in the composition.
A lipid mixture (cationic lipid:DPPC:cholesterol:GS-020=60:10.6:28:1.4, molar ratio) was dissolved in 90% of EtOH and 10% of a 25 mM acetate buffer solution (pH 4.0) to obtain a 7.4 mg/ml lipid solution. Luciferase (luc) siRNA (see Table 2) was dissolved in a 25 mM acetate buffer solution (pH 4.0) to obtain a 0.15 mg/ml nucleic acid solution. The obtained lipid solution and nucleic acid solution were mixed at a flow rate ratio of 1 ml/min:5 ml/min at room temperature using Asia microfluidic system (Syrris Ltd.) to obtain a dispersion containing a composition. The obtained dispersion was dialyzed against water at room temperature for 1 hour and against PBS at room temperature for 18 hours using Slyde-A-Lyzer (molecular weight cutoff: 20 K, Thermo Fischer Scientific Inc.). Subsequently, the dialysate was filtered through a 0.2 μm syringe filter (Iwaki) and preserved at 4° C. Hereinafter, the particle size of the lipid particle in the composition was calculated as a Z-average particle size by the cumulant analysis of an autocorrelation function using a particle size measurement apparatus Zetasizer Nano ZS (Malvern Instruments) based on a dynamic light scattering measurement technique.

Data set [2] relates to human liver cancer-derived cell line Hep3B stably expressing luciferase. As to the kind of experiment: Transfection of cultured cell with siRNA (luciferase knockdown). Type of data set: cell-based. The note with it: lipid particle containing luciferase siRNA, 48 hours after addition, read-out: siRNA concentration necessary for 50% knockdown. On the procedure:
A human liver cancer-derived cell line Hep3B stably expressing luciferase was cultured at a cell density of 6000 cells/well in a 96-well plate. 24 hours later, 10 μl of the lipid particle containing luciferase siRNA was added to the medium. 48 hours after the addition of siRNA, the amount of decrease in expression (knockdown) of luciferase was measured using Picagene LT2.0 kit (Toyobo Co., Ltd.).

The structures appear in SMILES notation.

As for `CCCCCCC(=O)OCC(COC(=O)CCCCN(C)C)(COC(=O)C(CCCCC)CCCCC)COC(=O)C(CCCCC)CCCCC` [Example 5, 2-(((5-(Dimethylamino)pentanoyl)oxy)methyl)-2-((heptanoyloxy)methyl)propane-1,3-diyl bis(2-pentylheptanoate)], in data set [1], the Rate of encapsulation stood at 96%, the siRNA concentration stood at 120 µg/mL and the Average particle size was 83 nm. Further, the IC50 in data set [2] came to 28 nM.

As for `CCCCCCCC(=O)OCC(COC(=O)CCCN(C)C)(COC(=O)C(CCCCCC)CCCCCC)COC(=O)C(CCCCCC)CCCCCC` [Example 6, 2-(((4-(Dimethylamino)butanoyl)oxy)methyl)-2-((octanoyloxy)methyl)propane-1,3-diyl bis(2-hexyloctanoate)], in data set [1], the Rate of encapsulation is on record as 93%, the siRNA concentration stood at 389 µg/mL and the Average particle size was 77 nm. The IC50 in data set [2] was determined as 41 nM.
